Test [1] concerns the target T1, SMYD3 (Homo sapiens, UniProt Q9H7B4).
T1 construct: The SMYD3 full length enzyme was produced in-house by expression (with an N-terminal 6×His tag) in E. coli; 6xHis (N); made in house; host or cells: E. coli
T1 sequence (Q9H7B4 1-428): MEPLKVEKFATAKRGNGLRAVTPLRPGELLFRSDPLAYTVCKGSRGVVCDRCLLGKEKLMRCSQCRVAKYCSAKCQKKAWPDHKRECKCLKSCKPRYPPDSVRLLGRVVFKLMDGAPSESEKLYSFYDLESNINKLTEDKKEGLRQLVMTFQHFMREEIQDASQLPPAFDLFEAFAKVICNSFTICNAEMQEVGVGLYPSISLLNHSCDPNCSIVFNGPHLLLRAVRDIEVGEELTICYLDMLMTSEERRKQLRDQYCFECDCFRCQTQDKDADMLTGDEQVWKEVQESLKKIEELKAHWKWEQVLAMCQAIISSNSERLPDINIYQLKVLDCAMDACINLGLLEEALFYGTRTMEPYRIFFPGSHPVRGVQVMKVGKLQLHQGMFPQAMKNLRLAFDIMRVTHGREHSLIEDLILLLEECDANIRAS
Description: SMYD3 Scintillation Proximity Assay (SPA), methylation of MAP3K2 Peptide. Format: biochemical. Conditions: SMYD3 full length enzyme 10 nM, 3H-SAM 125 nM, MAP3K2 Peptide 1 μM, 120 min at 22° C. How it is done:
SMYD3 Scintillation Proximity Assay (SPA)
The SMYD3 full length enzyme was produced in-house by expression (with an N-terminal 6×His tag) in E. coli and purification by affinity chromatography on a Ni-NTA Sepharose column followed by a size exclusion chromatography step on a Superdex 200 16/60 column (GE Healthcare).
To this end, 100-fold concentrated compound solutions (in DMSO) were previously prepared by serial dilution (1:3.4) of 2 mM stocks in a clear low volume 384-well source microtiter plate (Greiner Bio-One), from which 100 nl of compounds were transferred into a white low volume test microtiter plate from the same supplier. […] The resulting mixture (5 μl final volume) was shortly centrifuged (2 min., 1500 rpm) and incubated at 22° C. during 120 min. […] Plates containing the stopped reaction were sealed with transparent adhesive foil (Perkin Elmer), centrifuged (2 min., 1500 rpm), and further incubated overnight at 4° C. in order to allow the SPA signals to develop. Subsequently, the amount of product was evaluated by measuring the energy transfer from the […] emitted by the 3H-labeled substrate to the scintillator co-polymerized in the bead's matrix, using a TopCount NXT scintillation counter (Packard) with the standard instrument settings for this purpose. The resulting scintillation counts were taken as indicator for the amount of methylated peptide per well. […] IC50 values were calculated by fitting the normalized inhibition data to a 4-parameter logistic equation using the XLFit analysis software (IDBS).
Background: SPA uses beads or plates that emit light when radiolabelled molecules are held near them.

The target in test [2] is T2, untagged full length SMYD3 (Homo sapiens, UniProt Q9H7B4).
T2 construct: As protein untagged full length SMYD3 was used
T2 sequence (Q9H7B4 1-428): T1 sequence (Q9H7B4 1-428)
Briefly: Thermal Shift Assay. The settings on record: protein 1.5-2.0 μM, 5× SYPRO Orange, scans 25° C. to 80° C.; control 4% DMSO. Format: binding. How it is done: Thermal Shift Assay Thermal melting experiments were performed with a ViiA™ Real-Time PCR machine (Thermo Fisher Scientific) in 384-well microliter plate with a final volume of 5 μL. Melting curves were obtained at a protein concentration of 1.5-2.0 μM and 5× SYPRO Orange (Invitrogen) using buffer containing 20 mM Tris pH7.0; 150 mM NaCl; 1.0 mM DTT. As protein untagged full length SMYD3 was used. […] As control 4% DMSO was used. Scans were measured from 25° C. to 80° C. at a scanning rate of 0.1° C./sec. All TSA data were analyzed by using Genedata Assay Analyzer.

These results are taken from patent US11161825B2, “4-oxo-2,3,4,5-tetrahydro-1H-1,5-benzodiazepine-7-carboxamides” (Bayer Aktiengesellschaft, priority 2017, dated 2021).

By IC50 is commonly meant the concentration that gives 50% inhibition. Read a high IC50 as lower potency. On to `Cc1nocc1C(=O)N1c2ccc(C(=O)NCCC3CC3)cc2NC(=O)CC1C` (racemic) [Example 5, N-(2-cyclopropylethyl)-2-methyl-1-[(3-methyl-1,2-oxazol-4-yl)carbonyl]-4-oxo-2,3,4,5-tetrahydro-1H-1,5-benzodiazepine-7-carboxamide], for which, in test [1], the half-inhibitory concentration (IC50) was more than 20000 nM. For the same molecule, in test [2], the “Thermal shift assay (° C.)” value amounted to 2.90 °C.

In test [1], `CCN1CCC(N(C)C(=O)N2c3ccc(C(=O)NCCC4CC4)cc3NC(=O)C[C@@H]2C)CC1` [Example 28, (2S)—N^7-(2-cyclopropylethyl)-N^1-(1-ethylpiperidin-4-yl)-N^1,2-dimethyl-4-oxo-2,3,4,5-tetrahydro-1H-1,5-benzodiazepine-1,7-dicarboxamide] returned an IC50 of 130 nM. In test [2], the “Thermal shift assay (° C.)” value worked out at 9.94 °C.

Turning to `C[C@H]1CC(=O)Nc2cc(C(=O)NCCC3CC3)ccc2N1C(=O)N(C)C1CCNCC1` [Example 45, (2S)—N^7-(2-cyclopropylethyl)-N^1,2-dimethyl-4-oxo-N^1-(piperidin-4-yl)-2,3,4,5-tetrahydro-1H-1,5-benzodiazepine-1,7-dicarboxamide], half-maximal inhibition in test [1] (IC50) required 390 nM. Further, in test [2], the “Thermal shift assay (° C.)” value was 7.24 °C.

With `CCCCNC(=O)c1ccc2c(c1)NC(=O)CC(C)N2C(=O)CCC1CCCC1` (racemic) [Example 51, N-butyl-1-(3-cyclopentylpropanoyl)-2-methyl-4-oxo-2,3,4,5-tetrahydro-1H-1,5-benzodiazepine-7-carboxamide], the IC50 in test [1] is 24400 nM. Also, the “Thermal shift assay (° C.)” value in test [2] came out at 1.83 °C.

In turn, `CCCCCNC(=O)c1ccc2c(c1)NC(=O)CC(C)N2C(=O)C1CCCC1` (racemic) [Example 48, 1-(cyclopentylcarbonyl)-2-methyl-4-oxo-N-pentyl-2,3,4,5-tetrahydro-1H-1,5-benzodiazepine-7-carboxamide] gave a 50% inhibitory concentration (IC50) in test [1] of 26700 nM. In addition, in test [2], the “Thermal shift assay (° C.)” value was 1.60 °C.

In the case of `Cc1nocc1C(=O)N1c2ccc(C(=O)NCCC3CCC3)cc2NC(=O)C(C)C1C` (single isomer, unassigned) [Example 14, N-(2-cyclobutylethyl)-2,3-dimethyl-1-[(3-methyl-1,2-oxazol-4-yl)carbonyl]-4-oxo-2,3,4,5-tetrahydro-1H-1,5-benzodiazepine-7-carboxamide], the IC50 in test [1] was more than 20000 nM. In test [2], the “Thermal shift assay (° C.)” value was determined as 1.15 °C.

In test [1], `Cc1nocc1C(=O)N1c2ccc(C(=O)NCCC3CC3)cc2NC(=O)C(C)C1C` (single isomer, unassigned) [Example 10, N-(2-cyclopropylethyl)-2,3-dimethyl-1-[(3-methyl-1,2-oxazol-4-yl)carbonyl]-4-oxo-2,3,4,5-tetrahydro-1H-1,5-benzodiazepine-7-carboxamide] came in with an IC50 of more than 20000 nM. Also, the “Thermal shift assay (° C.)” value in test [2] was found to be 1.29 °C.

Turning to `CC1C(=O)Nc2cc(C(=O)NCCC3CC3)ccc2N(C(=O)c2ccccc2)C1C` (mixture of isomers) [Example 2, 1-benzoyl-N-(2-cyclopropylethyl)-2,3-dimethyl-4-oxo-2,3,4,5-tetrahydro-1H-1,5-benzodiazepine-7-carboxamide], in test [1], inhibition was half-maximal at 1260 nM (IC50). For the same molecule, the “Thermal shift assay (° C.)” value in test [2] was 5.21 °C.

As for `CC1CC(=O)Nc2cc(C(=O)NCCC3CC3)ccc2N1C(=O)c1ccccc1` (racemic) [Example 1, 1-benzoyl-N-(2-cyclopropylethyl)-2-methyl-4-oxo-2,3,4,5-tetrahydro-1H-1,5-benzodiazepine-7-carboxamide], in test [1], the IC50 was determined as 1660 nM. Also, the “Thermal shift assay (° C.)” value in test [2] came out at 5.27 °C.

With `C[C@H]1CC(=O)Nc2cc(C(=O)NCCC3CC3)ccc2N1C(=O)N1CCN(CC(F)(F)F)CC1` [Example 30, (2S)—N-(2-cyclopropylethyl)-2-methyl-4-oxo-1-{[4-(2,2,2-trifluoroethyl)piperazin-1-yl]carbonyl}-2,3,4,5-tetrahydro-1H-1,5-benzodiazepine-7-carboxamide], the IC50 in test [1] is 787 nM. Further, the “Thermal shift assay (° C.)” value in test [2] was determined as 5.69 °C.

With `CCCCNC(=O)c1ccc2c(c1)NC(=O)CC(C)N2C(=O)c1cccc(F)c1` (racemic) [Example 52, N-butyl-1-(3-fluorobenzoyl)-2-methyl-4-oxo-2,3,4,5-tetrahydro-1H-1,5-benzodiazepine-7-carboxamide], the IC50 in test [1] came to 18300 nM. In addition, in test [2], the “Thermal shift assay (° C.)” value is 1.16 °C.

`C[C@H]1CC(=O)Nc2cc(C(=O)NCCC3CC3)ccc2N1C(=O)N1CCC(F)(F)CC1` [Example 25, (2S)—N-(2-cyclopropylethyl)-1-[(4,4-difluoropiperidin-1-yl)carbonyl]-2-methyl-4-oxo-2,3,4,5-tetrahydro-1H-1,5-benzodiazepine-7-carboxamide] registered a half-inhibitory concentration (IC50) in test [1] of 2300 nM. Moreover, the “Thermal shift assay (° C.)” value in test [2] stood at 6.12 °C.

As to `C[C@H]1CC(=O)Nc2cc(C(=O)NCCC3CC3)ccc2N1C(=O)N(C)C1CCN(CC(F)(F)F)CC1` [Example 31, (2S)—N^7-(2-cyclopropylethyl)-N^1,2-dimethyl-4-oxo-N^1-[1-(2,2,2-trifluoroethyl)piperidin-4-yl]-2,3,4,5-tetrahydro-1H-1,5-benzodiazepine-1,7-dicarboxamide], inhibition in test [1] was half-maximal at 2520 nM (IC50). In addition, in test [2], the “Thermal shift assay (° C.)” value was determined as 2.79 °C.

`CCCCCNC(=O)c1ccc2c(c1)NC(=O)CC(C)N2C(=O)c1ccccc1F` (racemic) [Example 46, 1-(2-fluorobenzoyl)-2-methyl-4-oxo-N-pentyl-2,3,4,5-tetrahydro-1H-1,5-benzodiazepine-7-carboxamide] had an IC50 in test [1] of 38700 nM. Also, in test [2], the “Thermal shift assay (° C.)” value came to 2.02 °C.

As for `Cc1nocc1C(=O)N1c2ccc(C(=O)NCCC3CC3)cc2NC(=O)C(C)C1C` (single isomer, unassigned) [Example 11, N-(2-cyclopropylethyl)-2,3-dimethyl-1-[(3-methyl-1,2-oxazol-4-yl)carbonyl]-4-oxo-2,3,4,5-tetrahydro-1H-1,5-benzodiazepine-7-carboxamide], the IC50 in test [1] stood at 12900 nM. For the same molecule, the “Thermal shift assay (° C.)” value in test [2] worked out at 3.50 °C.

Molecule `CCN1CCN(C(=O)N2c3ccc(C(=O)NCCC4CC4)cc3NC(=O)C[C@@H]2C)CC1` [Example 27, (2S)—N-(2-cyclopropylethyl)-1-[(4-ethylpiperazin-1-yl)carbonyl]-2-methyl-4-oxo-2,3,4,5-tetrahydro-1H-1,5-benzodiazepine-7-carboxamide] had an IC50 in test [1] of 520 nM. For the same molecule, the “Thermal shift assay (° C.)” value in test [2] is 8.77 °C.

On to `C[C@H]1CC(=O)Nc2cc(C(=O)NCCC3CC3)ccc2N1C(=O)N1CC[C@@H](N)C1.Cl` [Example 39, (2S)-1-{[(3R)-3-aminopyrrolidin-1-yl]carbonyl}-N-(2-cyclopropylethyl)-2-methyl-4-oxo-2,3,4,5-tetrahydro-1H-1,5-benzodiazepine-7-carboxamide hydrochloride (1:1)], for which, in test [1], the IC50 was determined as 584 nM. For the same molecule, the “Thermal shift assay (° C.)” value in test [2] is 7.25 °C.

In test [1], `C[C@H]1CC(=O)Nc2cc(C(=O)NCCC3CC3)ccc2N1C(=O)N1CCN(CCO)CC1` [Example 26, (2S)—N-(2-cyclopropylethyl)-1-{[4-(2-hydroxyethyl)piperazin-1-yl]carbonyl}-2-methyl-4-oxo-2,3,4,5-tetrahydro-1H-1,5-benzodiazepine-7-carboxamide] returned a half-inhibitory concentration (IC50) of 1260 nM. Moreover, the “Thermal shift assay (° C.)” value in test [2] came to 6.08 °C.
